Our source for the melting point values is patent publication US20040248880A1, “1,2,3,4,5,6-Hexahydroazepino[4,5-B]indoles containing arylsulfones at the 9-position” (priority 2003, published 2004).

The structures appear in SMILES notation. Counter-ions that a name gives are not always drawn.

Regarding `Cl.O=S(=O)(c1ccccc1)c1ccc2[nH]c3c(c2c1)CCNCC3`, the melting point (commonly the temperature of the solid-liquid transition) was 290 to 291.5 °C.
Compound `Cl.Cn1c2c(c3cc(S(=O)(=O)c4ccccc4)ccc31)CCNCC2` showed a melting point above 300 °C.
On to `Cl.O=S(=O)(c1ccc(F)c(F)c1)c1ccc2[nH]c3c(c2c1)CCNCC3`, for which the melting point was 320 °C (dec.).
Consider `Cl.O=S(=O)(c1cc(F)cc(F)c1)c1ccc2[nH]c3c(c2c1)CCNCC3`, for which the melting point is 313 to 315 °C (dec.).
As for `Cl.Cn1c2c(c3cc(S(=O)(=O)c4cc(F)cc(F)c4)ccc31)CCNCC2`, the figure is 337 to 340 °C (dec.).
Turning to `CN1CCc2[nH]c3ccc(S(=O)(=O)c4ccccc4)cc3c2CC1`, the melting point was 150 °C (dec.).
As to `COc1cccc(S(=O)(=O)c2ccc3[nH]c4c(c3c2)CCNCC4)c1.Cl`, the melting point was 232 to 235 °C (dec.).
Regarding `Cl.O=S(=O)(c1ccc(C(F)(F)F)cc1)c1ccc2[nH]c3c(c2c1)CCNCC3`, the melting point is 278 to 279 °C (dec.).
As for `CCn1c2c(c3cc(S(=O)(=O)c4ccc(F)cc4)ccc31)CCNCC2.Cl`, the figure is 227 to 233 °C (dec.); as for `Cn1c2c(c3cc(S(=O)(=O)c4ccc(OCCO)cc4)ccc31)CCNCC2` (as salt: hydrochloride) [Example 17, 9-[(4-(2-Hydroxyethoxy)phenyl)sulfonyl]-6-methyl-1,2,3,4,5,6-hexahydroazepino[4,5-b]indole hydrochloride], 285 to 287 °C (dec.).
Under `O=S(=O)(c1ccc(F)cc1)c1ccc2[nH]c3c(c2c1)CCNCC3` [Example 2, 9-[(4-Fluorophenyl)sulfonyl]-1,2,3,4,5,6-hexahydroazepino[4,5-b]indole] stands 168 °C (dec.); under `Cc1ccc(S(=O)(=O)c2ccc3[nH]c4c(c3c2)CCNCC4)cc1` [Example 3, 9-[(4-Methylphenyl)sulfonyl]-1,2,3,4,5,6-hexahydroazepino[4,5-b]indole], 125 °C (dec.).
Consider `COc1ccc(S(=O)(=O)c2ccc3[nH]c4c(c3c2)CCNCC4)cc1` [Example 4, 9-[(4-Methoxyphenyl)sulfonyl]-1,2,3,4,5,6-hexahydroazepino[4,5-b]indole], for which the melting point was 139 °C (dec.).
As for `O=S(=O)(c1cccc(F)c1)c1ccc2[nH]c3c(c2c1)CCNCC3` [Example 5, 9-[(3-Fluorophenyl)sulfonyl]-1,2,3,4,5,6-hexahydroazepino[4,5-b]indole], the figure is 153 to 156 °C; as for `CCn1c2c(c3cc(S(=O)(=O)c4ccccc4)ccc31)CCNCC2` [Example 8, 6-Ethyl-9-(phenylsulfonyl)-1,2,3,4,5,6-hexahydroazepino[4,5-b]indole], 224 °C (dec.).
As for `CN1CCc2c(n(C)c3ccc(S(=O)(=O)c4ccccc4)cc23)CC1` [Example 18, 3,6-Dimethyl-9-(phenylsulfonyl)-1,2,3,4,5,6-hexahydroazepino[4,5-b]indole], the figure is 283 to 286 °C; as for `CC(C)N1CCc2c(n(C)c3ccc(S(=O)(=O)c4ccc(F)cc4)cc23)CC1` [Example 20, 9-[(4-fluorophenyl)sulfonyl]-3-isopropyl-6-methyl-1,2,3,4,5,6-hexahydroazepino[4,5-b]indole], 282 to 283 °C (dec.).
